Assay results published in patent US20230416679A1, “METHODS AND COMPOSITIONS FOR IN-VITRO AUGMENTATION OF MILK PRODUCTION FROM MAMMARY EPITHELIAL CELLS” (Wilk Technologies International Ltd., priority 2021, published 2023).

Columns and labels:
[1] = test system: primary culture of bovine mammary epithelial cells; assay: Intracellular triglyceride content in cell lysates (lipid extraction, HPLC-ELSD); type: cell-based; settings: 24 h of treatment (FIG. 7)
Description: For all the experiments, primary culture of bovine mammary epithelial cells were used. The cells were isolated from 3 lactating Holstein cows according to an established protocol (Cohen et al., 2015 supra). Study protocols were in compliance with the regulations of the Israeli Ministry of Health, under the supervision of the Department for Control of Animal Products, State of Israel Ministry of Agriculture Rural Development Veterinary Services and Animal Health. Certificate Nu: #80. After isolation, 60,000 cells were plated in a 35-mm plastic dish on glass cover slips for all florescence staining experiments. For production analysis, 150,000 cells were plated in a 60-mm plastic dish for lipids, protein, and lactose extraction. Oxygen consumption assay was performed by using Seahorse system (Agilent, USA); cells were plated in 24-well plate (20,000 cells/well) and incubated with DMEM/F12, with 0.15% (v/v) bovine serum albumin and insulin (1 μg/ml), hydrocortisone (0.5 μg/ml) and prolactin (1 μg/ml) for 48 h to induce lactogenic response. Then cells were treated with three different P. lentiscus extracts: ethyl acetate, hexane and chloroform, according to the protocol that was used before (Azaizeh et al., 2013). The extracts were diluted with DMEM/F12 medium supplemented with Dimethyl Sulfoxide (DMSO) in a final concentration of 0.1% for better dissolution of the extractions. […] The treatment was given in the presence of insulin (1 μg/ml), hydrocortisone (0.5 μg/ml) and prolactin (1 μg/ml). […] Otherwise, cells were fixed for florescence staining or plates taken to seahorse for oxygen consumption rate measurement.
After treatment, total lipids were extracted from harvested cells and from collected medium. The medium or the cells were diluted by 20 times Folch reagent (Chloroform-Methanol 2:1). After overnight incubation with cold extraction at 4° C., the upper phase was removed, and the lower phase was filtered through glass wool. Samples were then evaporated under a nitrogen stream at 65° C., diluted in 100 μl chloroform:methanol (97:3, v/v) and stored at −20° C. until injection for HPLC analysis. […] Quantification was performed against external standard curves and expressed as μg/per 10^6 live cells or as weight % out of the sum of phospholipids (μg) in the sample. Live cell number was determined with a hemocytometer after 5 min of trypan blue staining. […]
Cells were incubated with 360 uM oleic acid (O) with or without 1.2 mM beta hydroxybutyrate (BHBA, H). The concentration of triglyceride was measured in cell lysates.

[2] = test system: primary culture of bovine mammary epithelial cells; assay: Milk protein (casein, whey) secretion to the medium (HPLC-UV); type: cell-based
Description: For all the experiments, primary culture of bovine mammary epithelial cells were used. The cells were isolated from 3 lactating Holstein cows according to an established protocol (Cohen et al., 2015 supra). Study protocols were in compliance with the regulations of the Israeli Ministry of Health, under the supervision of the Department for Control of Animal Products, State of Israel Ministry of Agriculture Rural Development Veterinary Services and Animal Health. Certificate Nu: #80. After isolation, 60,000 cells were plated in a 35-mm plastic dish on glass cover slips for all florescence staining experiments. For production analysis, 150,000 cells were plated in a 60-mm plastic dish for lipids, protein, and lactose extraction. Oxygen consumption assay was performed by using Seahorse system (Agilent, USA); cells were plated in 24-well plate (20,000 cells/well) and incubated with DMEM/F12, with 0.15% (v/v) bovine serum albumin and insulin (1 μg/ml), hydrocortisone (0.5 μg/ml) and prolactin (1 μg/ml) for 48 h to induce lactogenic response. Then cells were treated with three different P. lentiscus extracts: ethyl acetate, hexane and chloroform, according to the protocol that was used before (Azaizeh et al., 2013). The extracts were diluted with DMEM/F12 medium supplemented with Dimethyl Sulfoxide (DMSO) in a final concentration of 0.1% for better dissolution of the extractions. Oleic acid was added to the treatment medium at a final concentration of […] to increase fat (triglycerol) synthesis to better enable the visualization of intracellular lipid droplets. The treatment was given in the presence of insulin (1 μg/ml), hydrocortisone (0.5 μg/ml) and prolactin (1 μg/ml). After 24 h of incubation, medium was collected for triglyceride and phospholipid quantification, and cells were harvested for cell counting, lipid, lactose or protein extraction. Otherwise, cells were fixed for florescence staining or plates taken to seahorse for oxygen consumption rate measurement. After treatment, 0.5 ml cultured medium was collected to HPLC equipped with UV detector. Protein content was determined in 220 nm wavelength by C-18 reverse phase column. Identification and quantification were determined by constructing a calibration curve of external standard of known protein concentrations which dissolved in a 50 mM phosphate buffer (PH=6.7). Identification for α casein, β casein and α lactalbumin were qualified as caseins (α and β casein) and whey (a lactalbumin) protein. Positive values indicate increased protein content whereas negative values indicate decreased protein content.

Row | Structure (SMILES) | intracellular triglyceride content [1] | protein secretion compared to control ([2]; 2 ppm, P=0.98) | casein secretion, higher than control ([2]; 1 ppm, P<0.05, FIG. 7C) [%] | whey secretion, higher than control ([2]; 1 ppm, P=0.05, FIG. 7D) [%] | increase of casein and whey secretion compared with control ([2]; between about 0.5 ppm and about 2.5 ppm, for example 1 ppm) [%]
1 | O=C(O)c1cc(O)c(O)c(O)c1 [gallic acid] | did not affect | did not change | – | – | –
2 | O=c1c(O)c(-c2cc(O)c(O)c(O)c2)oc2cc(O)cc(O)c12 [myricetin, Myricetin] | did not affect | – | 126 | 124 | 30
